Measured values: EP0908457B1, “3-(1,2-benzisothiazol- and isoxazol-5-Y1)-2,4(1H,3H)-pyrimidinedione or thione and 3-(1,2-benzisothiazol- and isoxazol-5-y1)-4(3H)-pyrimidinone or thione herbicidal agents” (BASF AKTIENGESELLSCHAFT, priority 1997, dated 1999)

Assays:
[1] = system: Echinochloa oryzoides (Ard.) Fritsch.; assay: Preemergence weed control under flooded paddy conditions, ECHORC (Watergrass (Calif.)); type: in vivo; settings: flooded paddy, rated three to four weeks after treatment
[2] = system: Cyperus iria; assay: Preemergence weed control under flooded paddy conditions, CYPIR (Rice Flatsedge); type: in vivo; settings: flooded paddy, rated three to four weeks after treatment
[3] = system: Cyperus serotinus, Rottb.; assay: Preemergence weed control under flooded paddy conditions, CYPSE (Flatsedge); type: in vivo; settings: rated three to four weeks after treatment
[4] = system: Sagittaria pygmaea, L.; assay: Preemergence weed control under flooded paddy conditions, SAGPY (Arrowhead (Pygmaea)); type: in vivo; settings: flooded paddy, rated three to four weeks after treatment
[5] = system: Oryza sativa, (L.) Tebonnet; assay: Rice tolerance to post-transplant applications under flooded paddy conditions (Example 187), ORYSAT (Rice, Tebonnet); settings: rated three to four weeks after treatment
[6] = Rate 0.0320 kg/ha, preemergence
[7] = Rate 0.0620 kg/ha, preemergence
[8] = Rate 0.1250 kg/ha, preemergence
[9] = Rate 0.2500 kg/ha, preemergence weeds
[10] = Rate 0.0320 kg/ha, preemergence weeds
[11] = Rate 0.0620 kg/ha, preemergence weeds
[12] = Rate 0.1250 kg/ha, preemergence weeds
[13] = Rate 0.2500 kg/ha, preemergence
Further: meaning of each grade not given here.

| SMILES | herbicidal effect rating, ECHORC [1, 9] | herbicidal effect rating, CYPIR [2, 9] | herbicidal effect rating, CYPSE [3, 9] | herbicidal effect rating, SAGPY [4, 9] | herbicidal effect rating ORYSAT ([5]; Rate 0.0320 kg/ha) | herbicidal effect rating ORYSAT ([5]; Rate 0.0620 kg/ha) | herbicidal effect rating ORYSAT ([5]; Rate 0.1250 kg/ha) | herbicidal effect rating ORYSAT ([5]; Rate 0.2500 kg/ha) | herbicidal effect rating, ECHORC [1, 10] | herbicidal effect rating, ECHORC [1, 11] | herbicidal effect rating, ECHORC [1, 12] | herbicidal effect rating, CYPIR [2, 10] | herbicidal effect rating, CYPIR [2, 11] | herbicidal effect rating, CYPIR [2, 12] | herbicidal effect rating, CYPSE [3, 10] | herbicidal effect rating, CYPSE [3, 11] | herbicidal effect rating, CYPSE [3, 12] | herbicidal effect rating, SAGPY [4, 10] | herbicidal effect rating, SAGPY [4, 11] | herbicidal effect rating, SAGPY [4, 12] | other results |
| --- | --- | --- | --- | --- | --- | --- | --- | --- | --- | --- | --- | --- | --- | --- | --- | --- | --- | --- | --- | --- | --- |
| C#CCOC(=O)COc1ccc(OC)cc1-c1nsc2ccc(-n3c(=O)cc(C(F)(F)F)n(C)c3=O)cc12 [Example 349, Acetic acid, {2-{5-[3,6-dihydro-3-methyl-2,6-dioxo-4-(trifluoromethyl)-1(2H)-pyrimidinyl]-1,2-benzisothiazol-3-yl}-4-methoxyphenoxy}-, 2-propynyl ester] | 7.0 | 7.0 | 4.0 | 6.0 | 4.0 | 5.0 | 7.0 | 7.0 | – | – | – | – | – | – | – | – | – | – | – | – | herbicidal effect rating, ECHORC [1, 6]: 5.0; herbicidal effect rating, ECHORC [1, 7]: 5.0; herbicidal effect rating, ECHORC [1, 8]: 6.0; herbicidal effect rating, CYPIR [2, 6]: 0.0; herbicidal effect rating, CYPIR [2, 7]: 4.0; herbicidal effect rating, CYPIR [2, 8]: 7.0; herbicidal effect rating, CYPSE [3, 6]: 4.0; herbicidal effect rating, CYPSE [3, 7]: 4.0; herbicidal effect rating, CYPSE [3, 8]: 4.0; herbicidal effect rating, SAGPY [4, 6]: 4.0; herbicidal effect rating, SAGPY [4, 7]: 5.0; herbicidal effect rating, SAGPY [4, 8]: 5.0 |
| CC(Br)c1nsc2ccc(-n3c(=O)cc(C(F)(F)F)n(C)c3=O)cc12 (stereo not shown) [Example 339, 2,4(1H,3H)-Pyrimidinedione, 3-[3-(1-bromoethyl)-1,2-benzisothiazol-5-yl]-1-methyl-6-(trifluoromethyl)-] | 6.0 | 7.0 | 9.0 | 9.0 | 5.0 | 7.0 | 9.0 | 9.0 | 0.0 | 0.0 | 4.0 | 4.0 | 4.0 | 7.0 | 0.0 | 0.0 | 6.0 | 5.0 | 5.0 | 5.0 | – |
| CSc1ccc(C)cc1-c1nsc2ccc(-n3c(=O)cc(C(F)(F)F)n(C)c3=O)cc12 [Example 342, 2,4(1H,3H)-Pyrimidinedione, 1-methyl-3-{3-[6-(methylthio)-m-tolyl]-1,2-benzisothiazol-5-yl}-6-(trifluoromethyl)-] | 7.0 | 8.0 | 9.0 | 2.0 | 0.0 | 0.0 | 2.0 | 3.0 | 4.0 | 4.0 | 7.0 | 0.0 | 0.0 | 4.0 | 0.0 | 0.0 | 0.0 | 0.0 | 0.0 | 0.0 | – |
| Cn1c(C(F)(F)F)cc(=O)n(-c2ccc3snc(C(C)(Br)Br)c3c2)c1=O [Example 340, 2,4(1H,3H)-Pyrimidinedione, 3-[3-(1,1-dibromoethyl)-1,2-benzisothiazol-5-yl]-1-methyl-6-(trifluoromethyl)-] | 9.0 | 9.0 | 7.0 | 7.0 | 5.0 | 6.0 | 7.0 | 9.0 | 5.0 | 6.0 | 9.0 | 2.0 | 5.0 | 7.0 | 3.0 | 3.0 | 6.0 | 4.0 | 4.0 | 5.0 | – |
| CCC(=O)COC(=O)COc1ccc(C)cc1-c1nsc2ccc(-n3c(=O)cc(C(F)(F)F)n(C)c3=O)cc12 [Example 577, Acetic acid, {{2-{5-[3,6-dihydro-3-methyl-2,6-dioxo-4-(trifluoromethyl)-1(2H)-pyrimidinyl]-1,2-benzisothiazol-3-yl}-p-tolyl}oxy}-, 2-oxobutyl ester] | – | – | – | – | 4.0 | 5.0 | 5.0 | 9.0 | – | – | – | – | – | – | – | – | – | – | – | – | herbicidal effect rating, ECHORC [1, 6]: 6.0; herbicidal effect rating, ECHORC [1, 7]: 7.0; herbicidal effect rating, ECHORC [1, 8]: 7.0; herbicidal effect rating, ECHORC [1, 13]: 9.0; herbicidal effect rating, CYPIR [2, 6]: 2.0; herbicidal effect rating, CYPIR [2, 7]: 4.0; herbicidal effect rating, CYPIR [2, 8]: 7.0; herbicidal effect rating, CYPIR [2, 13]: 9.0; herbicidal effect rating, CYPSE [3, 6]: 0.0; herbicidal effect rating, CYPSE [3, 7]: 3.0; herbicidal effect rating, CYPSE [3, 8]: 3.0; herbicidal effect rating, CYPSE [3, 13]: 3.0; herbicidal effect rating, SAGPY [4, 6]: 4.0; herbicidal effect rating, SAGPY [4, 7]: 6.0; herbicidal effect rating, SAGPY [4, 8]: 6.0; herbicidal effect rating, SAGPY [4, 13]: 6.0 |
| C=CCOC(C)c1nsc2ccc(-n3c(=O)cc(C(F)(F)F)n(C)c3=O)cc12 (stereo not shown) [Example 351, 2,4(1H,3H)-Pyrimidinedione, 3-{3-[1-(allyloxy)ethyl]-1,2-benzisothiazol-5-yl}-1-methyl-6-(trifluoromethyl)-] | – | – | – | – | 7.0 | 7.0 | 7.0 | 9.0 | – | – | – | – | – | – | – | – | – | – | – | – | herbicidal effect rating, ECHORC [1, 6]: 5.0; herbicidal effect rating, ECHORC [1, 7]: 6.0; herbicidal effect rating, ECHORC [1, 8]: 6.0; herbicidal effect rating, ECHORC [1, 13]: 7.0; herbicidal effect rating, CYPIR [2, 6]: 6.0; herbicidal effect rating, CYPIR [2, 7]: 7.0; herbicidal effect rating, CYPIR [2, 8]: 7.0; herbicidal effect rating, CYPIR [2, 13]: 9.0; herbicidal effect rating, CYPSE [3, 6]: 0.0; herbicidal effect rating, CYPSE [3, 7]: 6.0; herbicidal effect rating, CYPSE [3, 8]: 6.0; herbicidal effect rating, CYPSE [3, 13]: 8.0; herbicidal effect rating, SAGPY [4, 6]: 5.0; herbicidal effect rating, SAGPY [4, 7]: 6.0; herbicidal effect rating, SAGPY [4, 8]: 7.0; herbicidal effect rating, SAGPY [4, 13]: 7.0 |
| Cn1c(C(F)(F)F)cc(=O)n(-c2ccc3snc(C(=O)CBr)c3c2)c1=O [Example 337, 2,4(1H,3H)-Pyrimidinedione, 3-[3-(bromoacetyl)-1,2-benzisothiazol-5-yl]-1-methyl-6-(trifluoromethyl)-] | 6.0 | 9.0 | 9.0 | 3.0 | 3.0 | 3.0 | 3.0 | 3.0 | 2.0 | 2.0 | 6.0 | 0.0 | 0.0 | 6.0 | 0.0 | 0.0 | 0.0 | 0.0 | 0.0 | 0.0 | – |
| Cn1c(C(F)(F)F)cc(=O)n(-c2ccc3snc(C(=O)CCl)c3c2)c1=O [Example 338, 2,4(1H,3H)-Pyrimidinedione, 3-[3-(chloroacetyl)-1,2-benzisothiazol-5-yl]-1-methyl-6-(trifluoromethyl)-] | 9.0 | 8.0 | 5.0 | 5.0 | 0.0 | 0.0 | 3.0 | 6.0 | 2.0 | 2.0 | 4.0 | 3.0 | 3.0 | 3.0 | 0.0 | 0.0 | 0.0 | 0.0 | 2.0 | 2.0 | – |
